Reference: patent publication US12559495B2 (Agency for Science, Technology and Research, priority 2013, dated 2026)

The compounds below were run on HEK293-STF3A cells (assay: STF3A assay (luciferase reporter)). Conditions: Homo sapiens, 24 h, 1 day of treatment.
Type: cell-based
Experimental: HEK293-STF cell line was modified from Human embryonic kidney cell line HEK293 transfected with the STF reporter. HEK293-STF3A cell line was further modified from HEK293-STF cell line to express Wnt3A. This cell line was used to identify compounds that regulate either early or late signalling components of the Wnt pathway. L-Wnt3A (ATCC, #CRL-2647) cell line was used for providing Wnt3A conditioned media. The three cell lines were grown in DMEM (Dulbecco's Modified Eagle Medium) with 10% FBS (fetal bovine serum) incubated in 37° C. with 5% CO2. 2×10^4 HEK293-STF3A cells in 75 μl culture media were seeded in each well of white 96 well plates (Greiner #655098) and incubated overnight at 37° C. 25 μl serially diluted compound was added to the cells to give final concentration of 50 μM to 1.5 nM. After 1 day of treatment, 100 μl of Steady-Glo® Luciferase Assay reagent (#E2520, Promega) was added to each well and incubated for 10 minutes at room temperature. Luminescence was measured using Tecan Safire2® plate reader.

Q: CC(C(=O)Nc1ccc(N2CCN(C(=O)OC(C)(C)C)CC2)cc1)n1cnc2c1c(=O)n(C)c(=O)n2C (centres unmarked) [Compound 23, tert-butyl 4-(4-(2-(1,3-dimethyl-2,6-dioxo-2,3-dihydro-1H-purin-7(6H)-yl)propanamido)phenyl)piperazine-1-carboxylate] was tested. Which IC50 did it give?
A: Its IC50 is under 100 nM.

Q: Which IC50 does the source give for CC(C(=O)Nc1ccc(N2CCN(Cc3cc(F)cc(F)c3)CC2)cc1)n1cnc2c1c(=O)n(C)c(=O)n2C (centres unmarked) [Compound 63, N-(4-(4-(3,5-difluorobenzyl)piperazin-1-yl)phenyl)-2-(1,3-dimethyl-2,6-dioxo-2,3-dihydro-1H-purin-7(6H)-yl)propanamide] here?
A: Its IC50 is under 1000 nM.

Q: With C[C@@H]1CNCCN1c1ccc(NC(=O)Cn2cnc3c2c(=O)n(C)c(=O)n3C)cc1 [Compound 44, (R)-2-(1,3-dimethyl-2,6-dioxo-2,3-dihydro-1H-purin-7(6H)-yl)-N-(4-(2-methylpiperazin-1-yl)phenyl)acetamide] as the compound, how does the IC50 read?
A: Its IC50 is over 10000 nM.

Q: With Cn1c(=O)c2c(ncn2CC(=O)Nc2ccc(-c3ncccn3)cc2)n(C)c1=O [Compound 8, 2-(1,3-dimethyl-2,6-dioxo-2,3-dihydro-1H-purin-7(6H)-yl)-N-(4-(pyrimidin-2-yl)phenyl)acetamide] as the compound, how does the IC50 read?
A: Its IC50 is under 5000 nM.

Q: How did the IC50 turn out when Cn1c(=O)c2c(ncn2CC(=O)Nc2ccc(-c3ncco3)cc2)n(C)c1=O [Compound 24, 2-(1,3-dimethyl-2,6-dioxo-2,3-dihydro-1H-purin-7(6H)-yl)-N-(4-(oxazol-2-yl)phenyl)acetamide] was run?
A: The IC50 was under 1000 nM.

Q: For Cn1c(=O)c2c(ncn2CC(=O)Nc2ccc(N3CCNCC3)cn2)n(C)c1=O [Compound 42, 2-(1,3-dimethyl-2,6-dioxo-2,3-dihydro-1H-purin-7(6H)-yl)-N-(5-(piperazin-1-yl)pyridin-2-yl)acetamide], which IC50 is on record?
A: Its IC50 is over 10000 nM.

Q: How did the IC50 turn out when Cn1c(=O)c2c(ncn2CC(=O)Nc2cc(-c3ccccc3)cs2)n(C)c1=O [Compound 3, 2-(1,3-dimethyl-2,6-dioxo-2,3-dihydro-1H-purin-7(6H)-yl)-N-(4-phenylthiophen-2-yl)acetamide] was run?
A: Its IC50 is under 1000 nM.

Q: For Cn1c(=O)c2c(ncn2CC(=O)Nc2ccc(-c3ccccn3)cn2)n(C)c1=O [Compound 9, N-(2,3′-bipyridin-6′-yl)-2-(1,3-dimethyl-2,6-dioxo-2,3-dihydro-1H-purin-7(6H)-yl)acetamide], which IC50 is on record?
A: The IC50 was under 100 nM.

Q: With Cn1c(=O)c2c(nc(C(F)(F)F)n2CC(=O)Nc2ccc(-c3ccsc3)cc2)n(C)c1=O [Compound 70, 2-(1,3-dimethyl-2,6-dioxo-8-(trifluoromethyl)-2,3-dihydro-1H-purin-7(6H)-yl)-N-(4-(thiophen-3-yl)phenyl)acetamide] as the compound, how does the IC50 read?
A: The IC50 was under 100 nM.

Q: With Cc1cccc(-c2ccc(NC(=O)Cn3cnc4c3c(=O)n(C)c(=O)n4C)cc2)c1 [Compound 29, 2-(1,3-dimethyl-2,6-dioxo-2,3-dihydro-1H-purin-7(6H)-yl)-N-(3′-methylbiphenyl-4-yl)acetamide] as the compound, how does the IC50 read?
A: Its IC50 is under 100 nM.

Q: With Cn1c(=O)c2c(ncn2CC(=O)Nc2ccc(-c3ccc(F)cc3)nn2)n(C)c1=O [Compound 11, 2-(1,3-dimethyl-2,6-dioxo-2,3-dihydro-1H-purin-7(6H)-yl)-N-(6-(4-fluorophenyl)pyridazin-3-yl)acetamide] as the compound, how does the IC50 read?
A: The IC50 was under 100 nM.

Q: For C[C@@H](C(=O)Nc1ccc(-c2nccs2)cn1)n1cnc2c1c(=O)n(C)c(=O)n2C [Compound 84, (S)-2-(1,3-dimethyl-2,6-dioxo-1,2,3,6-tetrahydro-7H-purin-7-yl)-N-(5-(thiazol-2-yl)pyridin-2-yl)propanamide], which IC50 is on record?
A: Its IC50 is under 100 nM.

Q: Which IC50 does the source give for Cn1c(=O)c2c(ncn2CC(=O)Nc2ccc(N3CCN(C(=O)c4cccc(F)c4)CC3)cn2)n(C)c1=O [Compound 51, 2-(1,3-dimethyl-2,6-dioxo-2,3-dihydro-1H-purin-7(6H)-yl)-N-(5-(4-(3-fluorobenzoyl)piperazin-1-yl)pyridin-2-yl)acetamide] here?
A: The IC50 was under 1000 nM.

Q: For Cn1c(=O)c2c(ncn2CC(=O)Nc2ccc(-c3cccs3)cc2)n(C)c1=O [Compound 89, 2-(1,3-dimethyl-2,6-dioxo-1,2,3,6-tetrahydro-7H-purin-7-yl)-N-(4-(thiophen-2-yl)phenyl)acetamide], which IC50 is on record?
A: The IC50 was under 100 nM.

Q: Which IC50 does the source give for Cn1c(=O)c2c(ncn2CCCC(=O)Nc2ccc(-c3ccsc3)cc2)n(C)c1=O [Compound 88, 4-(1,3-dimethyl-2,6-dioxo-1,2,3,6-tetrahydro-7H-purin-7-yl)-N-(4-(thiophen-3-yl)phenyl)butanamide] here?
A: The IC50 was under 100 nM.

Q: Which IC50 does the source give for CC(C(=O)Nc1ccc(-c2ccc(F)cc2)nn1)n1cnc2c1c(=O)n(C)c(=O)n2C (centres unmarked) [Compound 78, 2-(1,3-dimethyl-2,6-dioxo-2,3-dihydro-1H-purin-7(6H)-yl)-N-(6-(4-fluorophenyl)pyridazin-3-yl)propanamide] here?
A: The IC50 was under 1000 nM.

Q: With Cn1c(=O)c2c(ncn2CC(=O)Nc2ccc(-c3ccc(F)cc3)cn2)n(C)c1=O [Compound 37, 2-(1,3-dimethyl-2,6-dioxo-2,3-dihydro-1H-purin-7(6H)-yl)-N-(5-(4-fluorophenyl)pyridin-2-yl)acetamide] as the compound, how does the IC50 read?
A: The IC50 was under 100 nM.

Q: With Cn1c(=O)c2c(ncn2CC(=O)Nc2ccc(-c3cccnc3)cc2)n(C)c1=O [Compound 26, 2-(1,3-dimethyl-2,6-dioxo-2,3-dihydro-1H-purin-7(6H)-yl)-N-(4-(pyridin-3-yl)phenyl)acetamide] as the compound, how does the IC50 read?
A: Its IC50 is under 100 nM.

Q: How did the IC50 turn out when C[C@H](C(=O)Nc1ccc(-c2ccccc2)nn1)n1cnc2c1c(=O)n(C)c(=O)n2C [Compound 80, (R)-2-(1,3-dimethyl-2,6-dioxo-2,3-dihydro-1H-purin-7(6H)-yl)-N-(6-phenylpyridazin-3-yl)propanamide] was run?
A: Its IC50 is over 10000 nM.

Q: Which IC50 does the source give for C[C@H](C(=O)Nc1ccc(-c2ccsc2)cc1)n1cnc2c1c(=O)n(C)c(=O)n2C [Compound 58, (R)-2-(1,3-dimethyl-2,6-dioxo-2,3-dihydro-1H-purin-7(6H)-yl)-N-(4-(thiophen-3-yl)phenyl)propanamide] here?
A: The IC50 was over 10000 nM.

Q: With Cn1c(=O)c2c(ncn2CC(=O)Nc2ccc(-c3ccncc3)cc2)n(C)c1=O [Compound 10, 2-(1,3-dimethyl-2,6-dioxo-2,3-dihydro-1H-purin-7(6H)-yl)-N-(4-(pyridin-4-yl)phenyl)acetamide] as the compound, how does the IC50 read?
A: The IC50 was under 1000 nM.

Q: Which IC50 does the source give for Cn1c(=O)c2c(ncn2CC(=O)Nc2ccc(-c3ccccc3)nc2)n(C)c1=O [Compound 35, 2-(1,3-dimethyl-2,6-dioxo-2,3-dihydro-1H-purin-7(6H)-yl)-N-(6-phenylpyridin-3-yl)acetamide] here?
A: Its IC50 is under 100 nM.

Q: Which IC50 does the source give for Cn1c(=O)c2c(ncn2CC(=O)Nc2ccc(N3CCN(Cc4cccc(F)c4)CC3)cn2)n(C)c1=O [Compound 57, 2-(1,3-dimethyl-2,6-dioxo-2,3-dihydro-1H-purin-7(6H)-yl)-N-(5-(4-(3-fluorobenzyl)piperazin-1-yl)pyridin-2-yl)acetamide] here?
A: The IC50 was under 100 nM.

Q: For Cn1c(=O)c2c(ncn2CC(=O)Nc2ccc(-c3ccccc3)cn2)n(C)c1=O [Compound 19, 2-(1,3-dimethyl-2,6-dioxo-2,3-dihydro-1H-purin-7(6H)-yl)-N-(5-phenylpyridin-2-yl)acetamide], which IC50 is on record?
A: The IC50 was under 100 nM.

Q: With Cn1c(=O)c2c(ncn2CC(=O)Nc2ccc(-c3ccsc3)cc2)n(C)c1=O [Compound 18, 2-(1,3-dimethyl-2,6-dioxo-2,3-dihydro-1H-purin-7(6H)-yl)-N-(4-(thiophen-3-yl)phenyl)acetamide] as the compound, how does the IC50 read?
A: The IC50 was under 100 nM.

Q: Cn1c(=O)c2c(ncn2CC(=O)Nc2ccc(N3CCN(Cc4ccccc4)CC3)cn2)n(C)c1=O [Compound 53, N-(5-(4-benzylpiperazin-1-yl)pyridin-2-yl)-2-(1,3-dimethyl-2,6-dioxo-2,3-dihydro-1H-purin-7(6H)-yl)acetamide] was tested. Which IC50 did it give?
A: Its IC50 is under 100 nM.
